Measurements from patent publication US6274715A, “Tricyclic erythromycin derivatives” (priority 1997, dated 2001).
Values after ≈ are worked out from the molar mass of the structure shown.

Experiments:
Format in all cases: cell-based
[1] = test system: STAPHYLOCOCCUS AUREUS ATCC 6538P; test: In vitro antibacterial activity, MIC, BHI agar dilution; details: S. aureus ATCC 6538P, 35-37° C., 20 to 24 hours, unit assumed
[2] = test system: STAPHYLOCOCCUS AUREUS A5177; test: as above; details: S. aureus A5177, unit assumed
[3] = test system: STAPHYLOCOCCUS AUREUS A-5278; test: as above; details: S. aureus A-5278, unit assumed
[4] = test system: STAPHYLOCOCCUS AUREUS CMX 642A; test: as above; details: S. aureus CMX 642A, unit assumed
[5] = test system: STAPHYLOCOCCUS AUREUS NCTC10649M; test: as above; details: S. aureus NCTC10649M, unit assumed
[6] = test system: STAPHYLOCOCCUS AUREUS CMX 553; test: as above; details: S. aureus CMX 553, unit assumed
[7] = test system: STAPHYLOCOCCUS AUREUS 1775; test: as above; details: S. aureus 1775, unit assumed
[8] = test system: STAPHYLOCOCCUS EPIDERMIDIS 3519; details: S. epidermidis 3519; BHI agar; unit assumed
[9] = test system: EN[…] ATCC 8043; test: In vitro antibacterial activity, MIC, BHI agar dilution; details: E. faecium ATCC 8043, unit assumed
Procedure, shortened: (§1)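 MIC was read visually as the lowest drug concentration showing no growth, a slight haze or sparsely isolated colonies relative to a compound-free BHI plate. Plates held serial aqueous dilutions in BHI agar, were spot-inoculated with 1:100 (or 1:10) culture dilutions and incubated 20 to 24 hours at 35-37° C.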

[10] = test system: M[…] ATCC 4698; test: as above; details: M. luteus ATCC 4698, unit assumed
Procedure, shortened: as §1

[11] = test system: M[…] ATCC 9341; test: as above; details: M. luteus ATCC 9341, unit assumed
Procedure, shortened: as §1

[12] = test system: STR[…] 508; test: as above; details: S. agalactiae CMX 508, unit assumed
Procedure, shortened: as §1

[13] = test system: STREPTOCOCCUS BOVIS A-5169; test: as above; details: S. bovis A-5169, unit assumed
[14] = test system: STREPTOCOCCUS PYOGENES EES61; test: as above; details: S. pyogenes EES61, unit assumed
[15] = test system: STREPTOCOCCUS PYOGENES 930; test: as above; details: S. pyogenes 930, unit assumed
[16] = test system: STREPTOCOCCUS PYOGENES PIU 2548; test: as above; details: S. pyogenes PIU 2548, unit assumed
[17] = test system: ESCHERICHIA COLI JUHL; details: E. coli JUHL; BHI agar; unit assumed
[18] = test system: ESCHERICHIA COLI SS; test: In vitro antibacterial activity, MIC, BHI agar dilution; details: E. coli SS, unit assumed
[19] = test system: ESCHERICHIA COLI DC-2; test: as above; details: E. coli DC-2, unit assumed
[20] = test system: ESCHERICHIA COLI H560; test: as above; details: E. coli H560, unit assumed
[21] = test system: ESCHERICHIA COLI KNK 437; details: E. coli KNK 437; BHI agar; unit assumed
[22] = test system: ENTEROBACTER AEROGENES ATCC 13048; test: In vitro antibacterial activity, MIC, BHI agar dilution; details: E. aerogenes ATCC 13048, unit assumed
[23] = test system: KLEBSIELLA PNEUMONIAE ATCC 8045; test: as above; details: K. pneumoniae ATCC 8045, unit assumed
[24] = test system: PROVIDENCIA STUARTII CMX 640; details: P. stuartii CMX 640; BHI agar; unit assumed
[25] = test system: PSEUDOMONAS AERUGINOSA BMH10; test: In vitro antibacterial activity, MIC, BHI agar dilution; details: P. aeruginosa BMH10, unit assumed
[26] = test system: PSEUDOMONAS AERUGINOSA 5007; test: as above; details: P. aeruginosa 5007, unit assumed
[27] = test system: PSEUDOMONAS AERUGINOSA K799/WT; test: as above; details: P. aeruginosa K799/WT, unit assumed
[28] = test system: PSEUDOMONAS AERUGINOSA K799/61; test: as above; details: P. aeruginosa K799/61, unit assumed
[29] = test system: PSEUDOMONAS CEPACIA 296I; test: as above; details: P. cepacia 296I, unit assumed
[30] = test system: PSEUDOMONAS AERUGINOSA DPHD-5263; test: as above; details: P. aeruginosa DPHD-5263, unit assumed
[31] = test system: PSEUDOMONAS AERUGINOSA DPHD-2862; test: as above; details: P. aeruginosa DPHD-2862, unit assumed
[32] = test system: CANDIDA ALBICANS CCH 442; test: as above; details: C. albicans CCH 442, unit assumed
[33] = test system: MYCOBACTERIUM SMEGMATIS ATCC 114; test: as above; details: M. smegmatis ATCC 114, unit assumed

Compound	MIC [1]	MIC [2]	MIC [3]	MIC [4]	MIC [5]	MIC [6]	MIC [7]	MIC [8]	MIC [9]	MIC [10]	MIC [11]	MIC [12]	MIC [13]	MIC [14]	MIC [15]	MIC [16]	MIC [17]	MIC [18]	MIC [19]	MIC [20]	other results
CC[C@H]1OC(=O)[C@H](C)C(=O)[C@H](C)[C@@H](O[C@@H]2O[C@H](C)C[C@H](N(C)C)[C@H]2O)[C@](C)(OC)C[C@@H](C)C2=NC[C@H](Cc3ccc(I)cc3)N3C(=O)O[C@@]1(C)[C@H]3[C@H]2C [Example 70]	0.1 µg/mL (≈ 0.117 µM)	0.1 µg/mL (≈ 0.117 µM)	100 µg/mL (≈ 117 µM)	0.2 µg/mL (≈ 0.234 µM)	0.2 µg/mL (≈ 0.234 µM)	0.2 µg/mL (≈ 0.234 µM)	100 µg/mL (≈ 117 µM)	0.2 µg/mL (≈ 0.234 µM)	0.1 µg/mL (≈ 0.117 µM)	0.2 µg/mL (≈ 0.234 µM)	0.1 µg/mL (≈ 0.117 µM)	0.05 µg/mL (≈ 0.0586 µM)	0.01 µg/mL (≈ 0.0117 µM)	0.02 µg/mL (≈ 0.0234 µM)	50 µg/mL (≈ 58.6 µM)	0.39 µg/mL (≈ 0.457 µM)	100 µg/mL (≈ 117 µM)	1.56 µg/mL (≈ 1.83 µM)	50 µg/mL (≈ 58.6 µM)	50 µg/mL (≈ 58.6 µM)	MIC [21]: > 100 µg/mL; MIC [22]: 100 µg/mL (≈ 117 µM); MIC [23]: 100 µg/mL (≈ 117 µM); MIC [24]: > 100 µg/mL; MIC [25]: 100 µg/mL (≈ 117 µM); MIC [26]: 100 µg/mL (≈ 117 µM); MIC [27]: > 100 µg/mL; MIC [28]: 0.78 µg/mL (≈ 0.914 µM); MIC [29]: 50 µg/mL (≈ 58.6 µM); MIC [30]: 100 µg/mL (≈ 117 µM); MIC [31]: 100 µg/mL (≈ 117 µM); MIC [32]: 100 µg/mL (≈ 117 µM); MIC [33]: 0.2 µg/mL (≈ 0.234 µM)
CCC1OC(=O)C(C)C(=O)C(C)C(OC2OC(C)CC(N(C)C)C2O)C(C)(OC)CC(C)C2=NCC(COCc3ccccc3F)N3C(=O)OC1(C)C3C2C (stereo not drawn) [Example 73]	0.1 µg/mL (≈ 0.129 µM)	0.1 µg/mL (≈ 0.129 µM)	> 100 µg/mL	0.1 µg/mL (≈ 0.129 µM)	0.1 µg/mL (≈ 0.129 µM)	0.1 µg/mL (≈ 0.129 µM)	> 100 µg/mL	0.1 µg/mL (≈ 0.129 µM)	0.05 µg/mL (≈ 0.0644 µM)	0.1 µg/mL (≈ 0.129 µM)	0.01 µg/mL (≈ 0.0129 µM)	≤ 0.005 µg/mL	0.01 µg/mL (≈ 0.0129 µM)	≤ 0.005 µg/mL	100 µg/mL (≈ 129 µM)	0.39 µg/mL (≈ 0.503 µM)	50 µg/mL (≈ 64.4 µM)	0.2 µg/mL (≈ 0.258 µM)	25 µg/mL (≈ 32.2 µM)	12.5 µg/mL (≈ 16.1 µM)	MIC [21]: 50 µg/mL (≈ 64.4 µM); MIC [22]: 100 µg/mL (≈ 129 µM); MIC [23]: 100 µg/mL (≈ 129 µM); MIC [24]: > 100 µg/mL; MIC [25]: 100 µg/mL (≈ 129 µM); MIC [26]: > 100 µg/mL; MIC [27]: > 100 µg/mL; MIC [28]: 0.39 µg/mL (≈ 0.503 µM); MIC [29]: 25 µg/mL (≈ 32.2 µM); MIC [30]: 100 µg/mL (≈ 129 µM); MIC [31]: 100 µg/mL (≈ 129 µM); MIC [32]: > 100 µg/mL; MIC [33]: 0.39 µg/mL (≈ 0.503 µM)
CCC1OC(=O)C(C)C(=O)C(C)C(OC2OC(C)CC(N(C)C)C2O)C(C)(OC)CC(C)C2=NC(COCc3ccc(N(C)C)cc3)CN3C(=O)OC1(C)C3C2C (stereo not drawn) [Example 76]	0.39 µg/mL (≈ 0.487 µM)	0.39 µg/mL (≈ 0.487 µM)	> 100 µg/mL	0.39 µg/mL (≈ 0.487 µM)	0.2 µg/mL (≈ 0.25 µM)	0.39 µg/mL (≈ 0.487 µM)	> 100 µg/mL	0.39 µg/mL (≈ 0.487 µM)	0.1 µg/mL (≈ 0.125 µM)	0.39 µg/mL (≈ 0.487 µM)	0.2 µg/mL (≈ 0.25 µM)	0.1 µg/mL (≈ 0.125 µM)	0.01 µg/mL (≈ 0.0125 µM)	0.1 µg/mL (≈ 0.125 µM)	> 100 µg/mL	0.39 µg/mL (≈ 0.487 µM)	> 100 µg/mL	0.39 µg/mL (≈ 0.487 µM)	> 100 µg/mL	50 µg/mL (≈ 62.4 µM)	MIC [21]: > 100 µg/mL; MIC [22]: > 100 µg/mL; MIC [23]: > 100 µg/mL; MIC [24]: > 100 µg/mL; MIC [25]: > 100 µg/mL; MIC [26]: > 100 µg/mL; MIC [27]: > 100 µg/mL; MIC [28]: 1.56 µg/mL (≈ 1.95 µM); MIC [29]: > 100 µg/mL; MIC [30]: > 100 µg/mL; MIC [31]: > 100 µg/mL; MIC [32]: > 100 µg/mL; MIC [33]: 6.2 µg/mL (≈ 7.74 µM)
CC[C@H]1OC(=O)[C@H](C)C(=O)[C@H](C)[C@@H](O[C@@H]2O[C@H](C)C[C@H](N(C)C)[C@H]2O)[C@](C)(OC)C[C@@H](C)C2=N[C@@H](COCc3ccccc3)CN3C(=O)O[C@@]1(C)[C@H]3[C@H]2C [Example 89]	0.39 µg/mL (≈ 0.515 µM)	0.39 µg/mL (≈ 0.515 µM)	> 100 µg/mL	0.39 µg/mL (≈ 0.515 µM)	0.39 µg/mL (≈ 0.515 µM)	0.39 µg/mL (≈ 0.515 µM)	> 100 µg/mL	0.39 µg/mL (≈ 0.515 µM)	0.1 µg/mL (≈ 0.132 µM)	0.39 µg/mL (≈ 0.515 µM)	0.05 µg/mL (≈ 0.066 µM)	0.01 µg/mL (≈ 0.0132 µM)	0.01 µg/mL (≈ 0.0132 µM)	0.02 µg/mL (≈ 0.0264 µM)	100 µg/mL (≈ 132 µM)	0.2 µg/mL (≈ 0.264 µM)	100 µg/mL (≈ 132 µM)	0.39 µg/mL (≈ 0.515 µM)	100 µg/mL (≈ 132 µM)	25 µg/mL (≈ 33 µM)	MIC [21]: 100 µg/mL (≈ 132 µM); MIC [22]: > 100 µg/mL; MIC [23]: > 100 µg/mL; MIC [24]: > 100 µg/mL; MIC [25]: > 100 µg/mL; MIC [26]: > 100 µg/mL; MIC [27]: > 100 µg/mL; MIC [28]: 1.56 µg/mL (≈ 2.06 µM); MIC [29]: 25 µg/mL (≈ 33 µM); MIC [30]: 100 µg/mL (≈ 132 µM); MIC [31]: > 100 µg/mL; MIC [32]: > 100 µg/mL; MIC [33]: 0.78 µg/mL (≈ 1.03 µM)
